Our source for the TGI and GI50 values is PubChem BioAssay (NCI).

Holding throughout (assay): NCI anticancer screen, dose series, 48 h
For assay [1], the system named is SF-539 CNS.
Assay [2] concerns UO-31 renal.
For assay [3], the system named is NCI-H226 lung.
Assay [4] concerns HCT-116 colon.
Assay [5] concerns 786-0 renal.
In assay [6] the test system is RPMI-8226 leukemia.
Assay [7] deals with NCI-H522 lung.
Assay [8] concerns MALME-3M melanoma.
Assay [9] deals with NCI-H23 lung.
For assay [10], the system named is TK-10 renal.

Values joined by “and” are separate entries in the source; they are usually repeats but may differ in a detail not shown here. Identical values can stand only once.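 Results reflect a 48-hour exposure of cells in 96-well plates to compound at five concentrations. At the GI50, growth is halved. The concentration for full growth arrest is given as TGI.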

On to `[N-]=[N+]=NC1(N=[N+]=[N-])C(=O)NN=C(c2ccccc2)C1=O` (centres undefined), for which the TGI in assay [1] was over 100 µM; in [2] it was over 100 µM; in [3] it was over 100 µM; in [4] it was 38.7 µM; in assay [5], over 100 µM; in [6], over 100 µM. In addition, the TGI in assay [7], in assay [8], in assay [9] and in [10] was over 100 µM in each case.
Consider `CCc1ccccc1NC(=O)/C(CC(=O)c1c(C)n([O-])c2ccccc2[n+]1=O)=N\NS(=O)(=O)c1ccc(C)cc1`, for which the TGI in [1] was over 100 µM; in assay [2], over 100 µM; in assay [3], over 100 µM; in assay [4], 55.3 µM; in [5], over 100 µM; in [6] it was 40 µM. Besides, the TGI in [7] is 47.1 µM; in [8], over 100 µM; in assay [9] it was over 100 µM; in assay [10], over 100 µM.
`C=C(C)C(=O)NC(N)=NC#N`: the GI50 in assay [1] is 154 µM; in assay [2], 134 µM; in [4], 131 µM; in assay [5], 30 µM; in assay [6] it was 24.7 µM; in [7], 2.26 µM. In addition, the GI50 in assay [8] was 80.8 µM; in assay [9], 147 µM; in assay [10] it was 33 µM. In addition, the TGI in assay [1] was 73.3 µM and 290 µM; in assay [2], > 92.1 µM and 265 µM; in assay [3], 330 µM; in [4], 257 µM; in assay [5] it was 140 µM; in [6], 44.9 µM and 120 µM. In addition, the TGI in assay [7] is 16.4 µM and 5.88 µM; in [8] it was 63.2 µM and 214 µM; in assay [9], 301 µM; in assay [10] it was 98.6 µM and 126 µM.
Consider `C[C@]12CCC3c4ccc(OC(=O)c5ccccc5)cc4CC[C@H]3C1CC[C@@H]2OC(=O)C12OC1CCC2=O` (some centres undefined), for which the TGI came out at 4.31 µM in assay [1]; 11.9 µM in [2]; 34.5 µM in assay [3]; 7.18 µM in [4]; 6.4 µM in assay [5]; 14.8 µM in [6]. Also, the TGI is 10.8 µM in assay [7], 13.3 µM in assay [8], 9.76 µM in assay [9] and 33.9 µM in [10].
For the compound `CC(=O)CC(=O)N(CCN(C(=O)CC(C)=O)c1ccccc1)c1ccccc1`, the TGI in assay [1], in [2], in [3], in assay [4], in [5] and in assay [6] was over 100 µM each time. The TGI in assay [7], in assay [8], in assay [9] and in [10] was over 100 µM each time.
In the case of `O=C1C(=O)c2cc([N+](=O)[O-])ccc2-c2ccccc21`, the GI50 in assay [1] was 1.82 µM; in assay [2], 1.45 µM; in [3], 1.78 µM; in assay [4], 1.43 µM; in [5], 1.97 µM; in assay [6], 2.21 µM. For the same compound, the GI50 in assay [7] was 1.28 µM; in assay [8] it was 1.77 µM; in assay [9], 1.65 µM; in [10], 1.77 µM. In addition, the TGI was 3.24 µM in assay [1]; 2.86 µM in [2]; 3.27 µM in assay [3]; 2.82 µM in assay [4]; 3.39 µM in [5]; 4.7 µM in assay [6]. For the same compound, the TGI turned out to be 2.68 µM in [7], 3.4 µM in assay [8], 3.29 µM in [9] and 3.19 µM in assay [10].
Regarding `Cc1cc(Cl)ccc1Nc1sc(C(=O)c2cc3cc(Cl)ccc3o2)c(N)c1C#N`, the TGI in assay [1] is over 66 µM; in assay [2], over 100 µM; in assay [3], over 100 µM; in [4], over 100 µM; in assay [5], 28.6 µM; in assay [6] it was over 62.4 µM. For the same compound, the TGI was 21.9 µM in assay [7], over 100 µM in assay [8], 35.5 µM in assay [9] and over 73.1 µM in [10].
For `Cc1cc(NC(=O)c2ccc(NS(=O)(=O)CCO)cc2N2CCC3(CC2)CC3)nc(N2CCC(F)(F)CC2)n1`, the GI50 in [1] was 0.0776 µM; in [2], 11.4 µM; in assay [3], 2.09 µM; in assay [4], 11.7 µM; in assay [5], 14.9 µM; in assay [6] it was 9.74 µM. The GI50 in [7] is 12.9 µM; in assay [8], 13.9 µM; in assay [9], 12.6 µM; in [10] it was 17.7 µM. The TGI stood at 16 µM in assay [1]; 23.8 µM in assay [2]; 29.3 µM in assay [3]; 26.8 µM in assay [4]; 30.6 µM in assay [5]; 33.4 µM in [6]. For the same compound, the TGI in assay [7] came to 27.3 µM; in [8], 27.8 µM; in assay [9] it was 26.6 µM; in assay [10], 32.6 µM.
For `Nc1ncc(-c2cnn(C3CCNCC3)c2)cc1-c1nc2ccccc2o1`, the GI50 in assay [1] is 1.5 µM; in assay [2], 0.714 µM; in assay [3], 1.97 µM; in assay [4], 0.616 µM; in assay [5], 1.4 µM; in [6] it was 0.857 µM. The GI50 in [7] is 0.757 µM; in assay [8] it was 1.72 µM; in assay [9] it was 1.35 µM; in assay [10], 0.924 µM. Besides, the TGI in assay [1] was determined as 2.83 µM; in assay [2], 2.35 µM; in assay [3], 6.59 µM; in assay [4], 2.03 µM; in assay [5], 2.92 µM; in assay [6], 2.7 µM. The TGI turned out to be 2.4 µM in [7], 3.37 µM in [8], 12.7 µM in [9] and 4.04 µM in assay [10].
With `CC1(C)CC23C(=O)N(c4ccccc4)C(=Nc4ccccc4)NC2=CC(C#N)=C(C#N)C3O1` (centres undefined), the TGI in [1] is over 100 µM; in assay [2], over 100 µM; in [3], 88.8 µM; in [4], over 100 µM; in assay [5] it was over 100 µM; in assay [6], over 100 µM. Also, the TGI in [7], in [8], in assay [9] and in assay [10] was over 100 µM throughout.
